Common to all, as to assay: DTP human tumour cell line panel, 48 h
In test [1] the test system is COLO 205 colon.
In test [2] the test system is HCT-15 colon.
Test [3] deals with HOP-62 NSCLC.
The subject of test [4] is HS 578T breast.
For test [5], the system named is HT29 colon.
The subject of test [6] is LOX IMVI melanoma.
Test [7] has as its system MCF7 breast.
The test system of test [8] is NCI-H226 lung.
The test system of test [9] is NCI/ADR-RES ovarian.
Test [10] has as its system UACC-62 melanoma.

The text below walks through data of PubChem BioAssay (NCI).

A word on the TGI: it is the concentration at which net growth stops. Read a high TGI as lower sensitivity of the cells.

Structures are written as SMILES.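 Where inhibition never reached the appropriate level, the endpoint shown equals the highest concentration tested. Otherwise, values were interpolated linearly from a five-concentration, 48-hour dose response in 96-well plates. TGI: concentration producing complete growth inhibition.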

Consider `N#Cc1ncn(-c2ccccc2)c1N`, for which the TGI in [1], in [2], in [3], in [4], in test [5] and in test [6] was over 100 µM each time. In addition, the TGI in [7], in test [8], in test [9] and in [10] was over 100 µM each time.

Turning to `CCC1(OC(=O)CN2CCN(CCO)CC2)C(=O)OCc2c1cc1n(c2=O)Cc2cc3ccccc3nc2-1` (stereo unspecified), the TGI is 15.5 µM in test [1]; 26.2 µM in test [2]; 4.55 µM in test [3]; over 85.8 µM in [4]; 8.85 µM in test [5]; 1.58 µM in test [6]. For the same compound, the TGI was determined as 2.18 µM in test [7], 2.2 µM in test [8], 7.99 µM in test [9] and 1.05 µM in test [10].

`CCOC(=O)C1(Cc2ccccc2)Cc2cc3c(cc2C1)CCC3`: the TGI in test [1] was 45.2 µM; in [2], over 100 µM; in test [3] it was over 100 µM; in test [4] it was over 100 µM; in [5], 46.2 µM; in [6], 43.9 µM. In addition, the TGI was 53 µM in test [7], 76.8 µM in [8], over 100 µM in test [9] and over 100 µM in test [10].

In the case of `Clc1ccccc1/C=C/c1nsc(/C=C/c2ccccc2Cl)n1`, the TGI in [1], in test [2], in test [3], in [4], in [5] and in [6] was over 100 µM in each case. In addition, the TGI in [7], in test [8] and in [9] was over 100 µM each time.

`COc1ccc(NC(=O)CC(=O)n2nc(C)c(N=Nc3ccc(C)c(C)c3)c2C)cc1`: the TGI in [1] is over 100 µM; in test [3] it was over 100 µM; in test [4], 97.4 µM; in test [5], over 100 µM; in [6], over 100 µM; in test [7] it was over 100 µM. For the same compound, the TGI in test [8], in [9] and in [10] was over 100 µM each time.

Consider `COc1ccc2c(c1)c1nn(CCN(C)C)c3ccc4c(=O)n(CCN(C)C)c(=O)n2c4c13`, for which the TGI came out at 0.182 µM in [1]; 0.173 µM in test [2]; 0.217 µM in test [3]; 0.244 µM in test [4]; 0.469 µM in test [6]; 0.198 µM in [7]. For the same compound, the TGI in [8] was 1.1 µM; in test [9] it was 0.277 µM; in test [10], 0.474 µM.

On to `Cc1cc(S(N)(=O)=O)c(SCc2nc(N)nc(N(C)C)n2)cc1Cl`, for which the total growth inhibition concentration (TGI) in [1], in test [2], in test [3], in [4], in test [5] and in test [6] was over 10 µM each time. For the same compound, the TGI in test [7], in test [8] and in [9] was over 10 µM each time.

For the compound `CCOc1ccc2ccccc2c1NC1=NCCO1`, the TGI in test [1] was over 100 µM; in [2], over 100 µM; in test [3] it was 74.2 µM; in [4], 78.2 µM; in test [5], over 100 µM; in test [7], over 100 µM. Besides, the values for the TGI in [8], in [9] and in test [10] were 85.4 µM, over 100 µM and over 100 µM, respectively.

Take `CC(=O)N1c2ccccc2C(C)(C)OC1C(Cl)(Cl)Cl` (stereo unspecified): the TGI in test [1] is over 100 µM; in [2], over 100 µM; in test [3], over 100 µM; in test [4], over 100 µM; in [5], over 100 µM; in test [7], 94.5 µM. Further, the TGI in [8], in [9] and in test [10] was over 100 µM throughout.

In the case of `Cn1c(=O)n2n(c1=O)Cc1cccc3cccc(c13)C2`, the TGI in test [1], in test [2], in [4], in [5], in [6] and in [7] was over 100 µM in each case. Also, the TGI in [8], in test [9] and in [10] was over 100 µM each time.

With `CC(=O)OCCC1c2ccccc2-n2nc(-c3ccccc3)c(O)c21` (stereo unspecified), the TGI came to 40.1 µM in test [1]; 55.1 µM in test [2]; 30.1 µM in test [3]; 54.9 µM in test [4]; 42.4 µM in [5]; 27.4 µM in test [6]. The TGI was 22.9 µM in test [7], 64.4 µM in test [8] and 47 µM in test [9].

In the case of `ClC(Cl)(Cl)C1CCOC1n1nc2ccccc2n1` (stereo unspecified), the concentration for total growth inhibition (TGI) in test [1], in test [2], in test [3], in [4], in [5] and in [7] was over 100 µM in each case. The TGI in test [8], in test [9] and in test [10] was over 100 µM each time.
